Data as given in patent publication US12570606B2, “Myeloperoxidase imaging agents” (The General Hospital Corporation, priority 2016, dated 2026).
Like-named read-outs stand apart in the source and are kept apart here.

Experiments:
[1] = Dynamic PET study of Compound 9 over 3 hours; assay type: in vivo, mouse; conditions: dynamic study over 3 hours
[2] = biological target: T1, MPO (Mus musculus, UniProt P11247); assay: CFA paw inflammation PET imaging and treatment by MPO inhibitor PF-1355; assay type: in vivo; design: from tissue; host or cells: inflamed forepaw of living mice (CFA); conditions: forepaw, 24 h after CFA emulsion, scan 2 h after tracer
T1 sequence (P11247 139-718): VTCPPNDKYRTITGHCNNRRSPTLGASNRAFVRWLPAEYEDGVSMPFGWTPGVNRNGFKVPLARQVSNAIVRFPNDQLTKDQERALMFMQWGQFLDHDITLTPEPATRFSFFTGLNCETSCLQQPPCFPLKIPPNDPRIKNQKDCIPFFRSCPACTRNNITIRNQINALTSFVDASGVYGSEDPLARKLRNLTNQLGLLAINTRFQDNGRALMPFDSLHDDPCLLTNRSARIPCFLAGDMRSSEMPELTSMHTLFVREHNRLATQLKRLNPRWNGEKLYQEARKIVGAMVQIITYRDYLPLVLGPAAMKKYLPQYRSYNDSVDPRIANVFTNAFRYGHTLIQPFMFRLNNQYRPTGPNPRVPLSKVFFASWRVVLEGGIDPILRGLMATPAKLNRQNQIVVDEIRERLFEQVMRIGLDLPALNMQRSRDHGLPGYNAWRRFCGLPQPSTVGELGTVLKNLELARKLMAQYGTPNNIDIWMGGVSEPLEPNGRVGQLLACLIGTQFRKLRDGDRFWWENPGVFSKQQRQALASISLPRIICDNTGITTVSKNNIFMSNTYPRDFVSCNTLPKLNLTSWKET
Protocol: Each pair contained one treated and one untreated, number of pairs, n=3. The 1/1 emulsion of CFA/PBS (40 μL) was injected subcutaneously on the dorsal side of one forepaw under isoflurane anesthesia, and PBS (40 μL) was injected on the other forepaw as control. After 1 h, the treated group was given PF-1355 (50 mg/kg) by gavage, then treated every 6 h for another 3 times, and the control group was treated with vehicle (10 mL/kg) accordingly. After 24 h, 300-600 uCi of Compound 9 was injected intravenously. After another 2 h, each pair of the mice was scanned side by side.
After validating the efficacy of the MPO Compound 9 in matrigel experiments, the specificity of the agent in inflammation was investigated. Complete Freund's Adjuvant (CFA) or its emulsion can cause inflammation when injected subcutaneously to the animal. The CFA emulsion was injected to one dorsal side of the forepaw of the mouse and the other side was injected with PBS. After 24 h, Compound 9 was injected intravenously and scanned 2 h after injection. […] To further verify the specificity of the MPO Compound 9, the mice were treated with MPO inhibitor PF-1355 1 h after CFA emulsion injection and continuously every 6 h afterwards for 4 times before injecting the Compound 9. The control group was treated with vehicle after CFA injection. Then each pair of the mice from treated and untreated groups were scanned.

[3] = Pharmacokinetics and biodistribution after i.v. injection; assay type: in vivo, wild-type C57BL/6 mice; conditions: for half-life: C57BL/6, mouse, blood, iv, i.v. tail vein
Protocol: The pharmacokinetic and biodistribution of Compound 9 was evaluated in wild-type C57BL/6 mice. After systemic intravenous (i.v.) injection via the tail vein, blood samples were collected to determine clearance rate of Compound 9 from the blood. The major organs of the mouse were harvested and the radioactivity was measured.

[4] = Stability of Compound 9 formulated for injection at room temperature; assay type: physicochemical
Protocol: Radiolabeling chemistry was performed using automated synthesis of the following steps: (1) azeotropic drying of [^18F]-fluoride; (2) [^18F]-fluorination; (3) Boc deprotection; and (4) HPLC purification, followed by solid-phase formulation of the final product. The synthesis module was operated in the following sequences with numerical references to FIG. 1. Automated syntheses were performed on a Synthra (Hamburg, Germany) model RN Plus automated synthesizer module. Boc-deprotection was conducted with 0.4 mmol aqueous HCl at 95° C. added directly to the labeling reaction mixture without any prior purification. The two-step synthesis can be finished in approximately 80 min with the total radiochemical yield of 47% after decay correction. • 1. [^18F]-Fluoride, received from PETNET (Waltham, Mass.), was produced by the ^18O(p,n)^18F nuclear reaction and delivered to the reagent vial A (A) of the radiosynthesis module via syringe after mixing with tetrabutylammonium bicarbonate ([…], 75 mM in H2O, 250 μL) and acetonitrile (MeCN, 300 μL). • 2. Automated synthesis began with the addition the [^18F]-fluoride/TBAB mixture (A) and MeCN (B) to the reaction vessel 1 (RV1). • 3. […] The eluent was monitored by UV (λ=254 nm) and radiochemical detectors connected in series. • 8. […]

Blood-brain barrier crossing (brain data) [1]: can cross the blood-brain barrier
PET signal of CFA side versus vehicle (PBS) injected side [2]: 4 fold
half-life ([3]; two-phase exponential decay model, read-out: Blood short (fast) half-life): 0.26 min
half-life ([3]; two-phase exponential decay model, read-out: Blood slow half-life): 4.66 min
Share of clearance accounted for by the fast half-life ([3]; two-phase exponential decay model): 94.7%
Time stable on storage ([4]; 0.5% (w/v) aqueous sodium-ascorbate in saline): at least 4 h
Stability on storage ([4]; 1×PBS for injection): degraded over time
SMILES: O=C(Cc1c[nH]c2ccc(O)cc12)NC(Cc1c[nH]c2ccc(O)cc12)C(=O)NCCOCCOCC[18F] (centres unmarked) [Compound 9]
Biodistribution of radioactivity in organs ([3]; major organs harvested after i.v. injection): the liver and kidney showed the highest radioactivity, followed by bone and lymph
